Data: publication PMC11029812, “Liver-targeted polymeric prodrugs delivered subcutaneously improve tafenoquine therapeutic window for malaria radical cure” (Science Advances, 2024)
Where two headings read alike, the source gives them in different places.

What was measured:
[1] = Tissue pharmacokinetics of released TQ and its metabolites in liver, plasma and urine (LC-MS/MS); assay type: in vivo, BALB/c mice
[2] = Polymer biodistribution (IVIS imaging) and liver hepatocyte localization (histology); assay type: in vivo; settings: mice
Description: Mice were dosed SC with rhodamine-labeled pSVCTQ at the dose of equivalent 25 mg/kg TQ, which were then euthanized at 8 hours after injection. Selected organs, including liver, kidneys, lungs, spleen, heart, and brain, were harvested and washed with PBS before imaging studies (IVIS) using fluorescent mode at (excitation/emission: 530/585 nm), Caliper Xenogen IVIS (PerkinElmer, Hopkinton, MA). The radiant efficiency emitted from the organs in each mouse was subsequently quantified using Xenogen Living Image software. Mice treated with PBS served as controls (fig. S12). Three mice were included in each group.
Rhodamine-labeled pSVCTQ was formulated in PBS and SC administered in mice at a dose of 25 mg/kg TQ equivalent. Mice receiving PBS served as controls. The liver was harvested at 8 hours after injection and immediately fixed in 10% neutral buffered formalin at 4°C for 4 hours. After washing three times in cold PBS, the liver tissue was sunk in 15% sucrose solution for 24 hours and then in 30% sucrose solution for 24 hours at 4°C. The sucrose solution was prepared in DPBS (1×, with Mg^2+ and Ca^2+). The liver tissue was then blotted with paper tissue and embedded in an optimal cutting temperature compound. The sample was frozen in prechilled isopentane in liquid nitrogen and stored at −80°C. The 5-μm-thick sections were prepared using CryoStat at −20°C. Alexa Fluor 488 phalloidin was diluted 1:50 in PBS and used to counterstain the sections for 1 hour at room temperature (RT) to visualize cell outlines. The cell nuclei were counterstained with DAPI (blue) for 5 min at RT. Sections were imaged using an epi-fluorescent microscope (Nikon Eclipse 90i and Hamamatsu C10600 Camera at 20× magnification) using GFP-B HYQ (excitation/emission: 450/550 nm) Texas red HYQ (excitation/emission: 535/580 nm) and ultraviolet illumination (excitation/emission: 350/470 nm).

P. berghei = P. berghei luciferase and blood parasitemia model of causal prophylaxis; assay type: in vivo
Description: Efficacy studies in the P. berghei mouse model of causal prophylaxis were conducted at the Walter Reed Army Institute of Research, Experimental Therapeutics Branch as previously described ([46]).
Luciferase-expressing P. berghei ANKA sporozoites were obtained from laboratory-reared female Anopheles stephens mosquitoes as previously described ([46]). Sporozoites were recovered by the method of Li et al. ([62]) and quantitated using a hemocytometer. Sporozoites isolated from the same batch of mosquitoes were inoculated into mice on the same day to control biological variability in sporozoite preparations. Each animal was inoculated IV in the tail vein with approximately 10,000 sporozoites suspended in 0.1-ml volume on day 0.
Age-matched, 40 young adult (7-week-old) female C57BL/6 albino mice were purchased from Charles River Laboratories (Frederick, MD). On arrival, animals were acclimated for 7 days in quarantine. Mice were housed and maintained at a temperature range of 64° to 79°F, 34 to 68% relative humidity, and a 12-hour light/dark cycle. Food and water were provided ad libitum. Animals were fed a standard rodent maintenance diet. All animal use, care, and handling was conducted under an IACUC-approved animal use protocol in an Association for Assessment and Accreditation for Laboratory Animal Care International (AAALACi)–accredited facility with a Public Health Services Animal Welfare Assurance and in compliance with the Animal Welfare Act and other federal statutes and regulations relating to laboratory animals.
TQ was dissolved at a stock concentration of 1 mg/ml in 25% hydroxy-β-cyclodextrin acidified to pH 5 with acetic acid and diluted in DPBS for final dosing solutions. Polymers for parenteral administration were prepared in DPBS at the final dosing concentrations. All drug concentrations were calculated per the free base molecular weights of TQ. TQ parent compounds were administered intragastrically via an intragastric feeder tube. Vehicle groups (0.1 ml of DPBS) and polymer groups were administered SC in the right flank. Free TQ, vehicle, and polymers were given as a single dose on day −1. In this model, the pSVCTQ doses studied were 5.0, 7.5, or 10 mg/kg TQ equivalent.
Whole-body IVIS imaging of bioluminescence activity from luciferase-expressing P. berghei–infected mice was performed using a PerkinElmer IVIS Spectrum. Mice were evaluated at 24, 48, and 72 hours after sporozoite inoculation to determine liver- and blood-stage malaria infection. Mice received luciferin (150 mg/kg, Gold Biotechnology, St. Louis, MO) intraperitoneally in a maximal volume of 150 μl. Three minutes after luciferin administration, the mice were anesthetized with inhaled isoflurane and positioned ventral side up in the IVIS Spectrum on a 37°C platform. The mice continued to receive isoflurane through nose cone delivery. The camera exposure times used were 1 or 5 min for the 24-, 48-, and 72-hour time points with f-stop = 1, and the large binning setting was chosen. Quantitative analysis of bioluminescence emitted from whole bodies or […] (ROI) were determined by measuring the luminescence signal intensity in photons per second using the ROI settings of the Living Image 3.0 software. The ROI, expressed in total flux of photons, was set to measure the abdominal area at the location of the liver from whole-body imaging ([62]). The data were generally found to fit a normal distribution. Means and SDs of photon measurement were calculated.
On days 5 to 31 after infection, mice were analyzed for blood-stage infections by quantitation of malaria parasites in erythrocytes by flow cytometry. Blood (3 μl) from the mouse tail was collected directly into 0.3 ml of 1% heparinized isotonic buffer (PBS saline). After addition of 1 ml of 0.04% of glutaraldehyde for fixation, the samples were incubated at 4°C for 60 min. Cells were centrifuged at 450g for 5 min. […]

[3] = Hemotoxicity in humanized G6PD deficiency mouse model; assay type: in vivo, human RBCs engrafted in NOD/SCID mice; settings: female, NOD/SCID (NOD.CB17-Prkdcscid/J), mouse, in vivo; curve fit of Fig. 4B; single dose; pSVCTQ SC, TQ oral; day 7; read-out: Dose resulting in 50% hemolysis (TD50)
Description: (§1) Following procedures as previously published ([46]), hemotoxicity studies using huRBC engraftments were conducted in mice.
(§2) Female (8 to 9 weeks) NOD.CB17-Prkdcscid/J [nonobese diabetic severe combined immunodeficient (NOD/SCID)] mice were purchased from The Jackson Laboratory (Bar Harbor, ME). The animals were housed in a cage maintained in a specific pathogen–free animal facility and were acclimated for 1 week in the facility before initiation of experimental procedures. Sterile food and water were provided ad libitum throughout the study as previously described ([64]). All animal studies were performed under IACUC-approved protocols and adhere to the principles stated in the Guide for the Care and Use of Laboratory Animals ([100]).
(§3) Polymer solutions for SC administration were prepared in DPBS at the final dosing concentrations. All drug concentrations were calculated per the free base molecular weights of TQ. The TQ parent compound was administered intragastrically via an intragastric feeder tube. Polymers and vehicle were administered SC in the right flank. TQ, pSVCTQ, and vehicle were given as a single dose on day 0. In this model, the TQ dose studied was 10 mg/kg; pSVCTQ was tested at doses of 2.5, 5.0, or 10 mg/kg TQ equivalent.
(§4) The percentage of huRBCs at the end of this period was analyzed by flow cytometry to evaluate glycophorin A (huRBCs) and Ter119 (mouse RBCs) circulating in peripheral blood. […] The G6PD-deficient huRBC NOD/SCID mice were dosed with pSVCTQ or parent drug prepared as described above, with three to four mice per group. On days 4 and 7 following dosing, huRBC levels were assessed again by flow cytometry (glycophorin^+Ter119^−), along with the percentage of murine reticulocytes (CD71^+Ter119) as an additional marker of hemolytic toxicity. Mice were euthanized on day 7 following initiation of treatment.
(§5) Microsoft Excel and GraphPad Prism were used throughout the PK analysis to process the data, calculate pharmacokinetic parameters, and yield statistical information. A linear regression model was produced using the least squares fitting method with 1/x^2 scaling for the assay calibrators. […] For the G6PD deficiency model, data analysis was performed using GraphPad Prism (GraphPad Software). […] An F test comparing the two dose-response curves was also run. For all other work, a combination of Microsoft Excel and GraphPad Prism was used.

G6PD-deficient huRBCs = test: as above; assay type: in vivo, human RBCs engrafted in NOD/SCID mice; settings: single dose day 0; pSVCTQ SC, TQ oral; A− G6PD-deficient donor
Description: as §1, §2, §3, §4, §5

[4] = parameters: method as in PMID 28749773; settings: G6PD-deficient cohort, cited from earlier work
[5] = 8 hours after SC 25 mg/kg TQ equivalent
[6] = female, BALB/c, mouse, in vivo, po, 10 mg/kg

For p(GalNAc-MA-co-VCTQ-MA) [pVCTQ], the “Liver:plasma AUC ratio” value ([1]; 25 mg/kg, IV, mice) was 120, the “AUC, liver” value ([1]; TQ in liver, 25 mg/kg TQ equivalent, IV, mice, t = 0 to 336 hours) was 2725 μg/g liver*hour and the “Cmax, liver” value ([1]; TQ in liver, 25 mg/kg, IV, mice) was 48 μg/g liver.
In the case of “p(GalNAc-co-MSEMA-co-SVCTQMA) [lower GalNAc polymeric prodrug design]”, the “PK properties compared with pSVCTQ” value ([1]; TQ in liver and plasma after SC 10 mg/kg dose, mice (fig. S15B)) was “preserved much of the PK properties”.
For “p(GMA-co-SVATQMA) [tri-antennary GalNAc polymeric prodrug]”, the “Liver AUC drug exposure compared with the copolymer” value ([1]; SC 10 mg/kg dose, mice (fig. S15C)) was “equivalent to the copolymer”.
With “p(GalNAc-MA-co-SVCTQ-MA-co-RheMA) [rhodamine-labeled pSVCTQ]” the “Fluorescence in lungs, heart, spleen, and brain (IVIS)” value [2, 5] was “little fluorescence intensity”, the “Fluorescence in the kidneys (IVIS)” value [2, 5] was “low level of fluorescence” and the “Liver accumulation (IVIS fluorescence)” value [2, 5] was “accumulate in the liver with high selectivity”. For the same compound, the “Liver penetration / hepatocyte distribution (cross-sectional histology)” value ([2]; liver 8 hours after SC 25 mg/kg TQ equivalent) was “present in every hepatocyte”.
For `COc1cc(C)c2c(Oc3cccc(C(F)(F)F)c3)c(OC)cc(NC(C)CCCN)c2n1` (stereo not shown) [TQ, tafenoquine], the AUC [1, 6] was 22400 ng·h/mL, the “AUC, liver” value [1, 6] was 1404 μg/g liver*hour and the Cmax [1, 6] was 380 ng/mL. The “Cmax, liver” value [1, 6] was 17 μg/g liver, the Kp [1, 6] was 62.8 and the Tmax [1, 6] was 8 h. For the same compound, the Mice survived (P. berghei; 10 mg/kg PO, single dose day −1, 31 days, n = 5) was 2/5, the Blood parasitemia suppression (P. berghei; 10 mg/kg oral, single dose day −1) was “partial suppression of parasitemia” and the “IVIS signal during days 1 to 3” value (P. berghei; 10 mg/kg single dose day −1, pSVCTQ SC, TQ oral) was “completely suppressed”. The TD50 at 7 days [3] was 5 mg/kg, the “Median effective dose (dose that results in 50% huRBC loss by day 7 relative to vehicle control)” value (G6PD-deficient huRBCs) was 4.7 mg/kg and the “Hemolytic toxicity (decreases in hemoglobin and hematocrit)” value ([4]; 100-mg dose) was “did not produce hemotoxicity”. For the same compound, the “Hemolytic toxicity (decreases in hemoglobin and hematocrit)” value ([4]; 300-mg dose) was “dose-limiting”.
